Measured values reported in patent US20020110601A1, “Antineoplastic platinum therapeutic method and composition” (priority 2000, published 2002).

How the values were obtained:
[1] = tested on: malignant pleural mesothelioma; assay: Intrapleural administration in malignant pleural mesothelioma: indwelling catheter versus needle; parameters: species or system human; settings: in vivo
Description: The first cycle of platinum drug by the present invention was administered 7 days after a baseline thoracoscopy. […] The starting fluid volume infused was 225 ml. Dosages of up to about 450 mg/M^2 are useful, but the empirical end point is compromised respiration such as shortness of breath. […] Repeated administrations were given every 3 to 4 weeks with attention to the presence or absence of a draining pleural effusion without loculation or (adhesions). That is a loculation surrounding the catheter entry must be broken u or carefully drained at the time of additional drug introduction to avoid hydrostatic pressure increases. […] If the fluid was still draining through the indwelling catheter, the patient received a third treatment seven days after the this thoracoscopy. […] While the course of treatment is within the skill of the medical professional with a view to the presenting condition of each patient, some initial parameters are noted. Intrapleural infusion is usefully held between consecutive cycles until the absolute granulocyte count is >1,500/mm^3 and platelets >100,000/mm^3 and complete recovery of non-hematological toxicities.

[2] = tested on: malignant pleural effusions; settings: human, in vivo
Description: A Phase I trial using the procedures of the present invention employed L-NDDP administered by intrapleural administration in patients with malignant pleural effusions.
Therapy began with a starting dose was 75 mg/m^2. […] Four patients were treated at the highest tested dose of 550 mg/m^2.

[3] = in vivo, iv; cited from earlier work

liposomal-cis-bis-neodecanoato-trans-R,R-1,2-diaminocyclohexane platinum (II) [L-NDDP]
extravasation and sepsis [1]: avoided extravasation and sepsis | local pain [2]: no local pain | toxicity [2]: mild nausea and vomiting | systemic toxicity ([2]; iv): No systemic toxicity | dose limiting toxicity [3]: myelosuppression
